# From patent US20240368165A1, “SOLID STATE FORMS OF HYDROCHLORIDE SALT OF ((1S,2S,4R)-4-{4-[(1S)-2,3-DIHYDRO-1H-INDEN-1-YLAMINO]-7H-PYRROLO[2,3-D]PYRIMIDIN-7-YL}-2-HYDROXYCYCLOPENTYL)METHYL SULFAMATE” (Takeda Pharmaceutical Company Limited, priority 2020, published 2024)
# Legend:
# Format in all cases: physicochemical
# [1] = Solid-state stability under accelerated storage, polymorphic form via XRPD; conditions: T-6 Days, hydrochloride
# Procedure: (§1) Solid-state stability studies of Forms 1, 9, and 12 were performed to assess the relative stability of new anhydrous Forms 9 and 12. Solid samples of each pattern were stored in open and closed glass vials at accelerated conditions (40° C./75% RH open and closed, and 60° C. closed). […]
# [2] = Solid-state stability under accelerated storage, purity via HPLC; conditions: for stability with respect to change in TAK-924 chemical purity (% Area) and physical form / overall chemical and physical stability: accelerated storage; for stability with respect to change in TAK-924 chemical purity (% Area) and physical form: compared to Form 1; for overall chemical and physical stability: overall stability data
# Procedure: as §1
# Solubility of solid form = conditions: pH 2.33; pH of 2.33
# [3] = 40° C./75% RH Closed, T-3.5 Weeks, hydrochloride
# [4] = 40° C./75% RH Closed, T-6 Days, hydrochloride
# [5] = 40° C./75% RH Open, T-3.5 Weeks, hydrochloride
# [6] = 40° C./75% RH Open, T-6 Days, hydrochloride
# [7] = 60° C. (closed), T-3.5 Weeks, hydrochloride
# [8] = 60° C. (closed), T-6 Days, hydrochloride
SMILES,XRPD Results (polymorphic form after accelerated storage) ([1]; 40° C./75% RH Closed),XRPD Results (polymorphic form after accelerated storage) ([1]; 60° C. (closed)),"HPLC Purity (% Area TAK-924) [2, 3]","HPLC Purity change from T-0 [2, 3]","HPLC Purity (% Area TAK-924) [2, 4]","HPLC Purity change from T-0 [2, 4]","HPLC Purity (% Area TAK-924) [2, 5]","HPLC Purity change from T-0 [2, 5]","HPLC Purity (% Area TAK-924) [2, 6]","HPLC Purity change from T-0 [2, 6]","HPLC Purity (% Area TAK-924) [2, 7]","HPLC Purity change from T-0 [2, 7]","HPLC Purity (% Area TAK-924) [2, 8]","HPLC Purity change from T-0 [2, 8]","HPLC Purity (% Area TAK-924), Initial (T-0) ([2]; Initial (T-0), before accelerated storage, hydrochloride)",solubility (Solubility of solid form),stability with respect to change in TAK-924 chemical purity (% Area) and physical form [2],overall chemical and physical stability [2]
"Cl.NS(=O)(=O)OC[C@@H]1C[C@@H](n2ccc3c(N[C@H]4CCc5ccccc54)ncnc32)C[C@@H]1O [Compound Form 1, ((1S,2S,4R)-4-{4-[(1S)-2,3-dihydro-1H-inden-1-ylamino]-7H-pyrrolo[2,3-d]pyrimidin-7-yl}-2-hydroxycyclopentyl)methyl sulfamate hydrochloride]",Form 1,Form 1,98.1 % Area,(−0.9%),98.6 % Area,(−0.4%),98.8 % Area,(−0.2%),98.9 % Area,(−0.1%),86.6 % Area,(−13.4%),94.4 % Area,(−5.6%),99.0 % Area,–,–,–
"Cl.NS(=O)(=O)OC[C@@H]1C[C@@H](n2ccc3c(N[C@H]4CCc5ccccc54)ncnc32)C[C@@H]1O [Compound Form 9, ((1S,2S,4R)-4-{4-[(1S)-2,3-dihydro-1H-inden-1-ylamino]-7H-pyrrolo[2,3-d]pyrimidin-7-yl}-2-hydroxycyclopentyl)methyl sulfamate hydrochloride]",–,–,–,–,–,–,–,–,–,–,–,–,–,–,–,~7800 µg/mL,stable when compared to Form 1,chemically and physically stable
"Cl.NS(=O)(=O)OC[C@@H]1C[C@@H](n2ccc3c(N[C@H]4CCc5ccccc54)ncnc32)C[C@@H]1O [Compound Form 12, ((1S,2S,4R)-4-{4-[(1S)-2,3-dihydro-1H-inden-1-ylamino]-7H-pyrrolo[2,3-d]pyrimidin-7-yl}-2-hydroxycyclopentyl)methyl sulfamate hydrochloride]",–,–,–,–,–,–,–,–,–,–,–,–,–,–,–,–,stable when compared to Form 1,chemically and physically stable
